Laboratory results reported in PubChem BioAssay (NCI).
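How tested: cells in 96-well plates exposed to compound for 48 hours at five concentrations. Here, GI50 denotes the concentration required for 50% inhibition of growth. The concentration for full growth arrest is given as TGI.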

Legend:
Assay in all cases: DTP human tumour cell line panel, 48 h
SW-620 colon = test system: SW-620 colon
SF-539 CNS = test system: SF-539 CNS
A549 NSCLC = test system: A549 NSCLC
HCT-15 colon = test system: HCT-15 colon
SK-MEL-28 melanoma = test system: SK-MEL-28 melanoma
OVCAR-3 ovarian = test system: OVCAR-3 ovarian
KM12 colon = test system: KM12 colon
MALME-3M melanoma = test system: MALME-3M melanoma
OVCAR-5 ovarian = test system: OVCAR-5 ovarian
NCI-H226 lung = test system: NCI-H226 lung
RXF 393 renal = test system: RXF 393 renal
SK-MEL-2 melanoma = test system: SK-MEL-2 melanoma
UACC-257 melanoma = test system: UACC-257 melanoma
HCC-2998 colon = test system: HCC-2998 colon
SNB-75 CNS = test system: SNB-75 CNS
HT29 colon = test system: HT29 colon
TK-10 renal = test system: TK-10 renal
MDA-MB-231 breast = test system: MDA-MB-231 breast
DU-145 prostate = test system: DU-145 prostate
HOP-62 NSCLC = test system: HOP-62 NSCLC
U251 CNS = test system: U251 CNS
M14 melanoma = test system: M14 melanoma
IGROV1 ovarian = test system: IGROV1 ovarian
NCI-H522 lung = test system: NCI-H522 lung
786-0 renal = test system: 786-0 renal
RPMI-8226 leukemia = test system: RPMI-8226 leukemia
SF-268 CNS = test system: SF-268 CNS
HS 578T breast = test system: HS 578T breast
CAKI-1 renal = test system: CAKI-1 renal
SNB-19 CNS = test system: SNB-19 CNS
ACHN renal = test system: ACHN renal
NCI/ADR-RES ovarian = test system: NCI/ADR-RES ovarian
BT-549 breast = test system: BT-549 breast
LOX IMVI melanoma = test system: LOX IMVI melanoma
A498 renal = test system: A498 renal
MDA-MB-435 = test system: MDA-MB-435
EKVX NSCLC = test system: EKVX NSCLC
COLO 205 colon = test system: COLO 205 colon
UACC-62 melanoma = test system: UACC-62 melanoma
OVCAR-8 ovarian = test system: OVCAR-8 ovarian
CCRF-CEM leukemia = test system: CCRF-CEM leukemia
SK-MEL-5 melanoma = test system: SK-MEL-5 melanoma
SF-295 CNS = test system: SF-295 CNS
NCI-H460 lung = test system: NCI-H460 lung
PC-3 prostate = test system: PC-3 prostate
T-47D breast = test system: T-47D breast
MCF7 breast = test system: MCF7 breast
NCI-H23 lung = test system: NCI-H23 lung
SK-OV-3 ovarian = test system: SK-OV-3 ovarian
HOP-92 NSCLC = test system: HOP-92 NSCLC
HCT-116 colon = test system: HCT-116 colon
UO-31 renal = test system: UO-31 renal
SN12C renal = test system: SN12C renal
HL-60(TB) leukemia = test system: HL-60(TB) leukemia
OVCAR-4 ovarian = test system: OVCAR-4 ovarian

Compound `Cc1cccc2c(C(=O)O[C@H](C(N)=O)[C@]3(C)CO3)cccc12` has a GI50 (SW-620 colon) of 0.351 µM, a TGI (SW-620 colon) of over 79.9 µM and a GI50 (SF-539 CNS) of 0.496 µM. The TGI (SF-539 CNS) was 1.57 µM, the GI50 (A549 NSCLC) was 3.66 µM and the TGI (A549 NSCLC) was over 100 µM. For the same compound, the GI50 (HCT-15 colon) was 1.69 µM, the TGI (HCT-15 colon) was 7.7 µM and the GI50 (SK-MEL-28 melanoma) was 1.91 µM. The TGI (SK-MEL-28 melanoma) was 5.49 µM, the GI50 (OVCAR-3 ovarian) was 2.07 µM and the TGI (OVCAR-3 ovarian) was 13.3 µM. For the same compound, the GI50 (KM12 colon) was 6.65 µM, the TGI (KM12 colon) was 42.9 µM and the GI50 (MALME-3M melanoma) was 3.97 µM. For the same compound, the TGI (MALME-3M melanoma) was 10.6 µM, the GI50 (OVCAR-5 ovarian) was 3.12 µM and the TGI (OVCAR-5 ovarian) was over 34.4 µM. It also gave a GI50 (NCI-H226 lung) of 0.556 µM, a TGI (NCI-H226 lung) of 2.21 µM and a GI50 (RXF 393 renal) of 3.76 µM. It also gave a TGI (RXF 393 renal) of over 100 µM, a GI50 (SK-MEL-2 melanoma) of 1.72 µM and a TGI (SK-MEL-2 melanoma) of 8.96 µM. For the same compound, the GI50 (UACC-257 melanoma) was 4.38 µM, the TGI (UACC-257 melanoma) was over 41.8 µM and the GI50 (HCC-2998 colon) was 1.24 µM. The TGI (HCC-2998 colon) was 3.33 µM, the GI50 (SNB-75 CNS) was 2.81 µM and the TGI (SNB-75 CNS) was 13.1 µM. For the same compound, the GI50 (HT29 colon) was 0.693 µM, the GI50 (TK-10 renal) was 6.02 µM and the TGI (TK-10 renal) was 33.3 µM. The GI50 (MDA-MB-231 breast) was 1.99 µM, the TGI (MDA-MB-231 breast) was 6.57 µM and the GI50 (DU-145 prostate) was 1.17 µM. The TGI (DU-145 prostate) was 5.89 µM, the GI50 (HOP-62 NSCLC) was 1.12 µM and the TGI (HOP-62 NSCLC) was 4.66 µM. For the same compound, the GI50 (U251 CNS) was 0.69 µM, the TGI (U251 CNS) was 8.07 µM and the GI50 (M14 melanoma) was 0.938 µM. It also gave a TGI (M14 melanoma) of 2.88 µM, a GI50 (IGROV1 ovarian) of 0.817 µM and a TGI (IGROV1 ovarian) of over 22.4 µM. It also gave a GI50 (NCI-H522 lung) of 1.39 µM, a TGI (NCI-H522 lung) of 7.82 µM and a GI50 (786-0 renal) of 1.4 µM. For the same compound, the TGI (786-0 renal) was 8.21 µM, the GI50 (RPMI-8226 leukemia) was 1.71 µM and the GI50 (SF-268 CNS) was 2.3 µM. The TGI (SF-268 CNS) was over 100 µM, the GI50 (HS 578T breast) was 3.52 µM and the TGI (HS 578T breast) was over 26.8 µM. The GI50 (CAKI-1 renal) was 1.33 µM, the TGI (CAKI-1 renal) was 11.6 µM and the GI50 (SNB-19 CNS) was 5.23 µM. For the same compound, the TGI (SNB-19 CNS) was over 61.7 µM, the GI50 (ACHN renal) was 0.302 µM and the TGI (ACHN renal) was 2.67 µM. It also gave a GI50 (NCI/ADR-RES ovarian) of 0.904 µM, a TGI (NCI/ADR-RES ovarian) of 6.34 µM and a GI50 (BT-549 breast) of 1.95 µM. The TGI (BT-549 breast) was 6.07 µM, the GI50 (LOX IMVI melanoma) was 0.0926 µM and the TGI (LOX IMVI melanoma) was 1.78 µM. It also gave a GI50 (A498 renal) of 13.3 µM, a TGI (A498 renal) of 41.2 µM and a GI50 (MDA-MB-435) of 4.75 µM. It also gave a TGI (MDA-MB-435) of 26.8 µM, a GI50 (EKVX NSCLC) of 3.93 µM and a TGI (EKVX NSCLC) of 13.5 µM. The GI50 (COLO 205 colon) was 2.37 µM, the TGI (COLO 205 colon) was 13.4 µM and the GI50 (UACC-62 melanoma) was 0.481 µM. The TGI (UACC-62 melanoma) was 1.75 µM, the GI50 (OVCAR-8 ovarian) was 0.465 µM and the TGI (OVCAR-8 ovarian) was 26.8 µM. It also gave a GI50 (CCRF-CEM leukemia) of 0.599 µM, a GI50 (SK-MEL-5 melanoma) of 1.23 µM and a TGI (SK-MEL-5 melanoma) of 3.04 µM. The GI50 (SF-295 CNS) was 2.11 µM, the TGI (SF-295 CNS) was 19.2 µM and the GI50 (NCI-H460 lung) was 4.31 µM. For the same compound, the TGI (NCI-H460 lung) was over 41.5 µM, the GI50 (PC-3 prostate) was 1.83 µM and the TGI (PC-3 prostate) was over 22.5 µM. The GI50 (T-47D breast) was 2.75 µM, the TGI (T-47D breast) was 15.9 µM and the GI50 (MCF7 breast) was 0.342 µM. It also gave a TGI (MCF7 breast) of over 100 µM, a GI50 (NCI-H23 lung) of 1.13 µM and a TGI (NCI-H23 lung) of 3.11 µM. For the same compound, the GI50 (SK-OV-3 ovarian) was 7.48 µM, the TGI (SK-OV-3 ovarian) was 24.4 µM and the GI50 (HOP-92 NSCLC) was 2.28 µM. It also gave a TGI (HOP-92 NSCLC) of 11.4 µM, a GI50 (HCT-116 colon) of 0.135 µM and a TGI (HCT-116 colon) of 5.51 µM. The GI50 (UO-31 renal) was 1.49 µM, the TGI (UO-31 renal) was 7.15 µM and the GI50 (SN12C renal) was 0.271 µM. For the same compound, the TGI (SN12C renal) was 2.58 µM, the GI50 (HL-60(TB) leukemia) was over 100 µM and the TGI (HL-60(TB) leukemia) was over 100 µM. It also gave a GI50 (OVCAR-4 ovarian) of 3.39 µM and a TGI (OVCAR-4 ovarian) of over 55.9 µM.
